Columns and labels:
[1] = Cytotoxicity against human SNB75 cells assessed as growth inhibition after 48 hrs by SRB assay; assay type: functional; settings: SNB-75, 48 h; for CC50: read-out: LD50 (the source's name)
[2] = Cytotoxicity against human SF268 cells assessed as growth inhibition after 48 hrs by SRB assay; assay type: functional; settings: SF-268, 48 h; for CC50: read-out: LD50 (the source's name)
[3] = Cytotoxicity against human DU145 cells assessed as growth inhibition after 48 hrs by SRB assay; assay type: functional; settings: DU-145, 48 h; for CC50: read-out: LD50 (the source's name)
[4] = Cytotoxicity against human MCF7 cells assessed as growth inhibition after 48 hrs by SRB assay; assay type: functional; settings: MCF7, 48 h; for CC50: read-out: LD50 (the source's name)
[5] = Cytotoxicity against human OVCAR3 cells assessed as assessed as growth inhibition at 10^-5 M after 48 hrs by SRB assay relative to control; assay type: functional; settings: OVCAR-3, 48 h, read-out: GI
[6] = Cytotoxicity against human LOXIMVI cells assessed as growth inhibition after 48 hrs by SRB assay; assay type: functional; settings: LOX IMVI; for CC50: read-out: LD50 (the source's name)
[7] = Cytotoxicity against human MDA-MB-231 cells assessed as growth inhibition after 48 hrs by SRB assay; assay type: functional; settings: MDA-MB-231, 48 h; for CC50: read-out: LD50 (the source's name)
[8] = Cytotoxicity against human 786-0 cells assessed as assessed as growth inhibition at 10^-5 M after 48 hrs by SRB assay relative to control; assay type: functional; settings: 786-0, 48 h, read-out: GI
[9] = Cytotoxicity against human U251 cells assessed as growth inhibition after 48 hrs by SRB assay; assay type: functional; settings: U-251, 48 h; for CC50: read-out: LD50 (the source's name)
[10] = Cytotoxicity against human HOP62 cells assessed as assessed as growth inhibition at 10^-5 M after 48 hrs by SRB assay relative to control; assay type: functional; settings: HOP-62, 48 h, read-out: GI
[11] = Cytotoxicity against human EKVX cells assessed as growth inhibition after 48 hrs by SRB assay; assay type: functional; settings: for CC50: read-out: LD50 (the source's name)
[12] = Cytotoxicity against human ACHN cells assessed as growth inhibition after 48 hrs by SRB assay; assay type: functional; settings: for CC50: read-out: LD50 (the source's name)
[13] = species on record: Mus musculus; assay: Genotoxicity in mouse EAC cells at 500 uM after 24 hrs by micronucleus assay (reference value: 3.5 +/- 0.30%); assay type: toxicity, cell-based; settings: ehrlich
[14] = Cytotoxicity against human HCT15 cells assessed as growth inhibition after 48 hrs by SRB assay; assay type: functional; settings: HCT-15, 48 h; for CC50: read-out: LD50 (the source's name)
[15] = Cytotoxicity against human RXF393 cells assessed as growth inhibition after 48 hrs by SRB assay; assay type: functional; settings: RXF 393, 48 h; for CC50: read-out: LD50 (the source's name)
[16] = Cytotoxicity against human RPMI8226 cells assessed as growth inhibition after 48 hrs by SRB assay; assay type: functional; settings: RPMI-8226, 48 h; for CC50: read-out: LD50 (the source's name)
[17] = Cytotoxicity against human UACC257 cells assessed as assessed as growth inhibition at 10^-5 M after 48 hrs by SRB assay relative to control; assay type: functional; settings: UACC-257, 48 h, read-out: GI
[18] = Cytotoxicity against human SNB19 cells assessed as assessed as growth inhibition at 10^-5 M after 48 hrs by SRB assay relative to control; assay type: functional; settings: SNB-19, 48 h, read-out: GI
[19] = Induction of apoptosis in mouse EAC cells at 125 uM after 24 hrs by acridine orange dye-based fluorescence microscopy (reference value: 0.66 +/- 0.33%); assay type: cell-based; settings: ehrlich
[20] = Cytotoxicity against human NCI-H23 cells assessed as growth inhibition after 48 hrs by SRB assay; assay type: functional; settings: NCI-H23, 48 h; for CC50: read-out: LD50 (the source's name)
[21] = Cytotoxicity against human BT549 cells assessed as growth inhibition after 48 hrs by SRB assay; assay type: functional; settings: BT-549, 48 h; for CC50: read-out: LD50 (the source's name)
[22] = Cytotoxicity against human SN12C cells assessed as assessed as growth inhibition at 10^-5 M after 48 hrs by SRB assay relative to control; assay type: functional; settings: read-out: GI
[23] = Cytotoxicity against human Hs 578T cells assessed as assessed as growth inhibition at 10^-5 M after 48 hrs by SRB assay relative to control; assay type: functional; settings: read-out: GI
[24] = Cytotoxicity against human A498 cells assessed as growth inhibition after 48 hrs by SRB assay; assay type: functional; settings: A498, 48 h; for CC50: read-out: LD50 (the source's name)
[25] = Cytotoxicity against human HCC2998 cells assessed as assessed as growth inhibition at 10^-5 M after 48 hrs by SRB assay relative to control; assay type: functional; settings: HCC 2998, 48 h, read-out: GI
[26] = Cytotoxicity against human MOLT4 cells assessed as growth inhibition after 48 hrs by SRB assay; assay type: functional; settings: MOLT-4, 48 h; for CC50: read-out: LD50 (the source's name)
[27] = Cytotoxicity against human NCI-ADR-RES cells assessed as assessed as growth inhibition at 10^-5 M after 48 hrs by SRB assay relative to control; assay type: functional; settings: read-out: GI
[28] = Induction of apoptosis in mouse EAC cells at 250 uM after 24 hrs by acridine orange dye-based fluorescence microscopy (reference value: 0.66 +/- 0.33%); assay type: cell-based; settings: ehrlich
[29] = Cytotoxicity against human HT-29 cells assessed as growth inhibition after 48 hrs by SRB assay; assay type: functional; settings: HT-29, 48 h; for CC50: read-out: LD50 (the source's name)
[30] = Cytotoxicity against human HT-29 cells assessed as assessed as growth inhibition at 10^-5 M after 48 hrs by SRB assay relative to control; assay type: functional; settings: HT-29, 48 h, read-out: GI
[31] = Cytotoxicity against human CCRF-CEM cells assessed as growth inhibition after 48 hrs by SRB assay; assay type: functional; settings: for CC50: read-out: LD50 (the source's name)
[32] = Cytotoxicity against human HCC2998 cells assessed as growth inhibition after 48 hrs by SRB assay; assay type: functional; settings: HCC 2998, 48 h; for CC50: read-out: LD50 (the source's name)
[33] = Cytotoxicity against human MDA-MB-468 cells assessed as growth inhibition after 48 hrs by SRB assay; assay type: functional; settings: MDA-MB-468, 48 h; for CC50: read-out: LD50 (the source's name)
[34] = Cytotoxicity against human NCI-H23 cells assessed as assessed as growth inhibition at 10^-5 M after 48 hrs by SRB assay relative to control; assay type: functional; settings: NCI-H23, 48 h, read-out: GI

Compound: O=C1Cc2cc(CCN3CCNCC3)c(Cl)cc2N1
- GI50 [1]: 1560 nM
- TGI [1]: 7540 nM
- CC50 [1]: > 1000 nM
- GI50 [2]: 1270 nM
- TGI [2]: > 1000 nM
- CC50 [2]: > 1000 nM
- GI50 [3]: 1990 nM
- TGI [3]: > 1000 nM
- CC50 [3]: > 1000 nM
- GI50 [4]: 3650 nM
- TGI [4]: > 1000 nM
- CC50 [4]: > 1000 nM
- inhibition of growth at 10 µM [5]: 17.2%
- GI50 [6]: 1000 nM
- TGI [6]: > 1000 nM
- CC50 [6]: > 1000 nM
- GI50 [7]: 3900 nM
- TGI [7]: > 1000 nM
- CC50 [7]: > 1000 nM
- inhibition of growth at 10 µM [8]: 15.3%
- GI50 [9]: 7790 nM
- TGI [9]: > 1000 nM
- CC50 [9]: > 1000 nM
- inhibition of growth at 10 µM [10]: 43.7%
- GI50 [11]: 3580 nM
- TGI [11]: > 1000 nM
- CC50 [11]: > 1000 nM
- GI50 [12]: 1000 nM
- TGI [12]: > 1000 nM
- CC50 [12]: > 1000 nM
- Activity [13]: 6.26%
- GI50 [14]: 6230 nM
- TGI [14]: > 1000 nM
- CC50 [14]: > 1000 nM
- GI50 [15]: 6890 nM
- TGI [15]: > 1000 nM
- CC50 [15]: > 1000 nM
- GI50 [16]: 6030 nM
- TGI [16]: > 1000 nM
- CC50 [16]: > 1000 nM
- inhibition of growth at 10 µM [17]: 48%
- inhibition of growth at 10 µM [18]: 42.4%
- Activity [19]: 1%
- GI50 [20]: 4640 nM
- TGI [20]: > 1000 nM
- CC50 [20]: > 1000 nM
- GI50 [21]: 8180 nM
- TGI [21]: > 1000 nM
- CC50 [21]: > 1000 nM
- inhibition of growth at 10 µM [22]: 52.8%
- inhibition of growth at 10 µM [23]: 69.9%
- GI50 [24]: 2850 nM
- TGI [24]: > 1000 nM
- CC50 [24]: > 1000 nM
- inhibition of growth at 10 µM [25]: 24.3%
- GI50 [26]: 1000 nM
- TGI [26]: > 1000 nM
- CC50 [26]: > 1000 nM
- inhibition of growth at 10 µM [27]: 51.6%
- Activity [28]: 1.06%
- GI50 [29]: 1000 nM
- TGI [29]: > 1000 nM
- CC50 [29]: > 1000 nM
- inhibition of growth at 10 µM [30]: 11.9%
- GI50 [31]: 2980 nM
- TGI [31]: > 1000 nM
- CC50 [31]: > 1000 nM
- GI50 [32]: 4660 nM
- TGI [32]: > 1000 nM
- CC50 [32]: > 1000 nM
- GI50 [33]: 2240 nM
- TGI [33]: 7420 nM
- CC50 [33]: > 1000 nM
- inhibition of growth at 10 µM [34]: 77.2%

Compound: O=C1Cc2cc(CCn3ccnc3)c(Cl)cc2N1
- GI50 [1]: 2160 nM
- TGI [1]: > 1000 nM
- CC50 [1]: > 1000 nM
- GI50 [2]: 1210 nM
- TGI [2]: > 1000 nM
- CC50 [2]: > 1000 nM
- GI50 [3]: 8020 nM
- TGI [3]: > 1000 nM
- CC50 [3]: > 1000 nM
- GI50 [4]: 4120 nM
- TGI [4]: > 1000 nM
- CC50 [4]: > 1000 nM
- inhibition of growth at 10 µM [5]: 36.5%
- GI50 [6]: 8530 nM
- TGI [6]: > 1000 nM
- CC50 [6]: > 1000 nM
- GI50 [7]: 5180 nM
- TGI [7]: > 1000 nM
- CC50 [7]: > 1000 nM
- inhibition of growth at 10 µM [8]: 10.6%
- GI50 [9]: 8240 nM
- TGI [9]: > 1000 nM
- CC50 [9]: > 1000 nM
- inhibition of growth at 10 µM [10]: 33.1%
- GI50 [11]: 6130 nM
- TGI [11]: > 1000 nM
- CC50 [11]: > 1000 nM
- GI50 [12]: 2030 nM
- TGI [12]: > 1000 nM
- CC50 [12]: > 1000 nM
- Activity [13]: 4.83%
- GI50 [14]: 7070 nM
- TGI [14]: > 1000 nM
- CC50 [14]: > 1000 nM
- GI50 [15]: 6280 nM
- TGI [15]: > 1000 nM
- CC50 [15]: > 1000 nM
- GI50 [16]: 4610 nM
- TGI [16]: > 1000 nM
- CC50 [16]: > 1000 nM
- inhibition of growth at 10 µM [17]: 39.8%
- inhibition of growth at 10 µM [18]: 28.5%
- Activity [19]: 0.33%
- GI50 [20]: 4080 nM
- TGI [20]: > 1000 nM
- CC50 [20]: > 1000 nM
- GI50 [21]: 9510 nM
- TGI [21]: > 1000 nM
- CC50 [21]: > 1000 nM
- inhibition of growth at 10 µM [22]: 48.8%
- inhibition of growth at 10 µM [23]: 68.9%
- GI50 [24]: 2190 nM
- TGI [24]: 6110 nM
- CC50 [24]: > 1000 nM
- inhibition of growth at 10 µM [25]: 28.5%
- GI50 [26]: 5670 nM
- TGI [26]: > 1000 nM
- CC50 [26]: > 1000 nM
- inhibition of growth at 10 µM [27]: 54.3%
- Activity [28]: 0.5%
- GI50 [29]: 1000 nM
- TGI [29]: > 1000 nM
- CC50 [29]: > 1000 nM
- inhibition of growth at 10 µM [30]: 1.22%
- GI50 [31]: 3370 nM
- TGI [31]: > 1000 nM
- CC50 [31]: > 1000 nM
- GI50 [32]: 3220 nM
- TGI [32]: > 1000 nM
- CC50 [32]: > 1000 nM
- GI50 [33]: 2740 nM
- TGI [33]: > 1000 nM
- CC50 [33]: > 1000 nM
- inhibition of growth at 10 µM [34]: 73.3%

— ChEMBL document CHEMBL3856212, “Synthesis, anti-proliferative and genotoxicity studies of 6-chloro-5-(2-substituted-ethyl)-1,3-dihydro-2H-indol-2-ones and 6-chloro-5-(2-chloroethyl)-3-(alkyl/ary-2-ylidene)indolin-2-ones” (Eur J Med Chem, 2016)
